Test results published in US20250032451A1, “MICROSPHERE FORMULATIONS COMPRISING ASENAPINE AND METHODS FOR MAKING AND USING THE SAME” (Oakwood Laboratories, LLC, priority 2021, published 2025).
Where a name gives a salt, the structure may show the parent alone. Read-outs that look alike come from different tables or passages of the source.

Columns and labels:
[1] = Solubility of asenapine maleate in water and solvents; assay type: physicochemical
pKa of asenapine maleate = assay type: physicochemical

SMILES: CN1C[C@@H]2c3ccccc3Oc3ccc(Cl)cc3[C@H]2C1 (racemic) [asenapine maleate]
- solubility ([1]; N-methylpyrrolidone, organic solvent or mixture, NMP, read-out: N-methylpyrrolidone (NMP) solubility): 700 mg/mL
- solubility ([1]; benzyl alcohol, organic solvent or mixture, BA, read-out: benzyl alcohol (BA) solubility): 500 mg/mL
- solubility ([1]; dichloromethane, organic solvent or mixture, DCM, read-out: dichloromethane (DCM) solubility): 324 mg/mL
- solubility ([1]; dimethyl sulfoxide, organic solvent or mixture, DMSO, read-out: dimethyl sulfoxide (DMSO) solubility): 700 mg/mL
- solubility ([1]; ethanol, organic solvent or mixture, EtOH, read-out: ethanol (EtOH) solubility): 100 mg/mL
- solubility ([1]; ethyl acetate, organic solvent or mixture, EA, read-out: ethyl acetate (EA) solubility): 10 mg/mL
- solubility ([1]; water, read-out: water solubility): 3 mg/mL
- pKa (pKa of asenapine maleate): 8.64
